Assay results taken from patent publication US20100068174A1, “COMBINATION WITH BIS (THIOHYDRAZIDE AMIDES) FOR TREATING CANCER” (Synta Pharmaceuticals Corp., priority 2006, published 2010).

Tests used:
in vivo = settings: female, SW, mouse, iv
Method: Tissue samples were prepared by homogenizing a weighed tissue sample in phosphor-buffered saline (PBS, ×1)+1% DTT (×1)+CH3CN (0.1% HCOOH) (×3)), centrifuged at 10,000 rpm×5 min; 150 μL supernatant+90 μL H2O. 100 μL prepared samples were subjected to HPLC, using 5-95% CH3CN (0.1% HCOOH) as the eluent. The running time was 15 min.

[1] = system: Stage IV metastatic melanoma patients; settings: RECIST, Efficacy Sample
Method: Patients were treated until progression of the disease. […] The tumor assessments were performed at baseline, Cycle 2, and every other Cycle thereafter.

| Structure (SMILES) | Kp at 30 min (in vivo) | concentration at 30 min (in vivo) [µM] | CR + PR (95% CI) [1] |
| --- | --- | --- | --- |
| CN(NC(=O)CC(=O)NN(C)C(=S)C1CC1)C(=S)C1CC1 [Compound (18)] | ~1.64 | ~51 |  |
| CC(=O)O[C@H]1C(=O)[C@@]2(C)[C@H]([C@H](OC(=O)c3ccccc3)[C@]3(O)C[C@H](OC(=O)[C@H](O)[C@@H](NC(=O)c4ccccc4)c4ccccc4)C(C)=C1C3(C)C)[C@]1(OC(C)=O)CO[C@@H]1C[C@@H]2O [Paclitaxel] |  |  | 3.7% (0.1%, |
